{"source": "patent US20230348453A1", "about": "“HALOGENATED-HETEROARYL AND OTHER HETEROCYCLIC KINASE INHIBITORS, AND USES THEREOF” (iOmx Therapeutics AG, priority 2020, published 2023)", "key": {"KU812 tumours": {"system": "KU812 tumours", "details": "50 mg/kg/day for 5 days; cited from earlier work"}, "[1]": {"test": "Full pharmacokinetic study in mice", "details": "mouse, in vivo"}, "[2]": {"details": "human, in vivo; cited from earlier work"}, "K562 CML cells": {"system": "K562 CML cells", "details": "10 mg/kg/day; cited from earlier work"}, "HCK": {"molecular_target": "HCK (Homo sapiens (Human), UniProt P08631)", "assay_type": "biochemical", "details": "Kinase Profiler"}, "hERG potassium channel": {"molecular_target": "hERG potassium channel (Homo sapiens (Human), UniProt Q12809)", "details": "cited from earlier work"}, "RET [3]": {"molecular_target": "T1, RET (Homo sapiens (Human), UniProt P07949)", "T1 sequence (P07949 29-1114 limits assumed)": "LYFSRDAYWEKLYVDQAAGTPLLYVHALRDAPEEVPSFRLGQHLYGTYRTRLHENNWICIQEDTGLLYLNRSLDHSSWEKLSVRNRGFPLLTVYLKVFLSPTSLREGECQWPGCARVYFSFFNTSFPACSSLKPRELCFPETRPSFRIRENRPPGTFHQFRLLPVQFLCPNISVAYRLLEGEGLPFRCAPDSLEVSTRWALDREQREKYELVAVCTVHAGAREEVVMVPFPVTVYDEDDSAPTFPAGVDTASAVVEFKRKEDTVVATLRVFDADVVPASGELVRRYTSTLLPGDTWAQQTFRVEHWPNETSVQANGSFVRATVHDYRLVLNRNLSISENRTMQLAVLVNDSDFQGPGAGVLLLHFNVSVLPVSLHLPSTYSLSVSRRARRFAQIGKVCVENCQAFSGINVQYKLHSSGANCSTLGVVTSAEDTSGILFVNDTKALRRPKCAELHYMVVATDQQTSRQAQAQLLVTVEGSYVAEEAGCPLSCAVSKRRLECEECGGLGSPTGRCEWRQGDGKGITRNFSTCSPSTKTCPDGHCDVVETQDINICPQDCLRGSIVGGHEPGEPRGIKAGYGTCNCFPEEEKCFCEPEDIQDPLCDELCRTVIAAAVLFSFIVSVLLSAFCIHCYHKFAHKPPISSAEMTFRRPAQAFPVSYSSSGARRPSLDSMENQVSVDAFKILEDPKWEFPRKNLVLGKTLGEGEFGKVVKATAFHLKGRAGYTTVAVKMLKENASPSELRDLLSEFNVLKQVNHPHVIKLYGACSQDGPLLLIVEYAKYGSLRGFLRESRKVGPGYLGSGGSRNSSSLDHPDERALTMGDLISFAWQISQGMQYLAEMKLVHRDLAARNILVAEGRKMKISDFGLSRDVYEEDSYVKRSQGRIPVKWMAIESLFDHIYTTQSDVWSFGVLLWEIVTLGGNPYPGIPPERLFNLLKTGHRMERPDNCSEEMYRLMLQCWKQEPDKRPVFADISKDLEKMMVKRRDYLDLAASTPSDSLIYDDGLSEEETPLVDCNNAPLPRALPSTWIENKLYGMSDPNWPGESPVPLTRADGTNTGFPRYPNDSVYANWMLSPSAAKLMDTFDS"}, "[4]": {"details": "cited from earlier work"}, "RET [5]": {"molecular_target": "T1, RET", "test": "biochemical", "details": "read-out: RET residual activity (%) at 1 μM, 1 μM"}, "MDR1 (P-gp)": {"molecular_target": "MDR1 (P-gp) (Homo sapiens (Human), UniProt P08183)", "test": "in vitro", "details": "dog, MDCK-MDR1, MDCK-MDR1 cells"}, "[6]": {"test": "Screening PK in mice after 30 mg/kg po", "details": "mouse, in vivo"}, "in vitro [7]": {"test": "in vitro", "details": "dog, MDCK, MDCK-wild type cells"}, "[8]": {"test": "Murine plasma protein binding", "details": "Table 5A"}, "in vitro [9]": {"test": "in vitro", "details": "mouse, microsomes"}, "[10]": {"details": "microsomes"}, "SIK3": {"molecular_target": "SIK3 (Homo sapiens (Human), UniProt Q9Y2K2)", "details": "read-out: SIK3 IC50"}, "[11]": {"test": "Human plasma-protein binding", "details": "Table 5A"}, "in vitro [12]": {"test": "in vitro", "details": "human, microsomes"}, "[13]": {"details": "microsomes", "remark": "listed apart in the source"}}, "data": [{"compound": "Cc1nc(Nc2ncc(C(=O)Nc3c(C)cccc3Cl)s2)cc(N2CCN(CCO)CC2)n1", "note": "[Compound A8, N-(2-chloro-6-methylphenyl)-2-((6-(4-(2-hydroxyethyl)piperazin-1-yl)-2-methylpyrimidin-4-yl)amino)thiazole-5-carboxamide]", "values": [{"measurement": "outcome in mice bearing large KU812 tumours", "setting": "KU812 tumours", "value": "curative"}, {"measurement": "Cmax (ng/ml), Total", "setting": "[1]", "value": 550, "unit": "ng/mL"}, {"measurement": "patients with cardiomyopathy, heart failure congestive, diastolic dysfunction, fatal myocardial infarction, and left ventricular dysfunction", "setting": "[2]", "value": 1.6, "unit": "%"}, {"measurement": "survival of mice inoculated intracranially with K562 CML cells", "setting": "K562 CML cells", "value": "increased survival"}, {"measurement": "HCK residual activity", "setting": "HCK", "value": "less than 1%"}, {"measurement": "inhibition of hERG currents at 3 uM", "setting": "hERG potassium channel", "value": "about 6%"}, {"measurement": "inhibition of hERG currents at 10 uM", "setting": "hERG potassium channel", "value": "~36", "unit": "%"}, {"measurement": "RET residual activity (%) at 1 μM", "setting": "RET [3]", "value": 39, "unit": "%"}, {"measurement": "severe gastrointestinal haemorrhage, including fatalities", "setting": "[4]; all clinical studies", "value": "4 % of patients"}, {"measurement": "cardiomyopathy, heart failure congestive, diastolic dysfunction, fatal myocardial infarction, and left ventricular dysfunction", "setting": "[4]; human, in vivo", "value": "1.6 % of patients"}, {"measurement": "remaining activity at 1 µM", "setting": "RET [5]", "value": "< 40", "unit": "%"}, {"measurement": "Papp", "setting": "MDR1 (P-gp)", "value": 105, "unit": "×10⁻⁶ cm/s"}, {"measurement": "Papp", "setting": "MDR1 (P-gp); Mean Papp A > B (10^−6 cm/s)", "value": 2.4, "unit": "×10⁻⁶ cm/s"}, {"measurement": "Cmax after 2 h", "setting": "[6]", "value": 550, "unit": "ng/mL"}, {"measurement": "Papp", "setting": "in vitro [7]; Mean Papp A > B (10^−6 cm/s)", "value": 21, "unit": "×10⁻⁶ cm/s"}, {"measurement": "Papp", "setting": "in vitro [7]; Mean Papp B > B (10^−6 cm/s)", "value": 49, "unit": "×10⁻⁶ cm/s"}]}, {"compound": "Cc1nc(Nc2ncc(C(=O)Nc3c(C)nn(C)c3C)s2)cc(N2CCN(CCO)CC2)n1", "note": "[Compound C8, 2-((6-(4-(2-hydroxyethyl)piperazin-1-yl)-2-methylpyrimidin-4-yl)amino)-N-(1,3,5-trimethyl-1H-pyrazol-4-yl)thiazole-5-carboxamide]", "values": [{"measurement": "Murine plasma protein binding, Percentage unbound (%)", "setting": "[8]", "value": 62, "unit": "%"}, {"measurement": "half-life", "setting": "in vitro [9]", "value": "> 1.67", "unit": "h"}, {"measurement": "Mouse liver microsomal stability, Intrinsic clearance (L/min/mg)", "setting": "[10]", "value": "< 14", "unit": "µL/min/mg"}, {"measurement": "Kinetic solubility", "value": 189, "unit": "µM"}, {"measurement": "IC50", "setting": "SIK3", "value": 9.73, "unit": "µM"}, {"measurement": "Human plasma-protein binding, Percentage unbound (%)", "setting": "[11]", "value": 5, "unit": "%"}, {"measurement": "half-life", "setting": "in vitro [12]", "value": "> 1.67", "unit": "h"}, {"measurement": "Human liver microsomal stability, Intrinsic clearance", "setting": "[13]", "value": "< 14", "unit": "µL/min/mg"}]}]}
